From patent US20090054517A1, “Phytoestrogens As Regulators Of Hedgehog Signaling And Methods Of Their Use In Cancer Treatment” (priority 2007, published 2009)
Like-named read-outs stand apart in the source and are kept apart here.

What was measured:
Gli1 = Gli1 mRNA expression by RT-PCR / real-time RT-PCR in TRAMP-C2 cells; assay type: cell-based, mouse; conditions: for suppression of Gli1 mRNA concentration compared with cyclopamine 30 μM: TRAMP-C2, time course 72 hrs, genistein 50 μM, EGCG 100 μM, FIG. 7A
Procedure: (§1) It has been shown that phytoestrogens in common herbs regulate prostate cancer cell growth in vitro (Shenouda et al., 2004). In order to determine whether these phytoestrogens also regulate cells derived from the mouse model of prostate cancer, the TRAMP-C2 cell line was treated with the soy phytoestrogen genistein and growth inhibition IC50 doses were determined (FIG. 4). Effects of the phytoestrogens genistein and EGCG on expression of these Hedgehog-pathway components were also determined by quantitative RT-PCR. Cyclopamine was used as a control. […] GAPDH was used as an internal control.
Another experiment was carried out to determine the dosage response of these phytoestrogen on Gli1 expression in the TRAMP-C2 cell line. Increasing amounts of genistein or EGCG were added to cell cultures of TRAMP-C2, and the levels of Gli1 mRNA was determined by real time RT-PCR. The results of this experiment verifies a correlation between phytoestrogen treatment and Hedgehog activity (FIG. 6).
In order to test whether the inhibitory effect of genistein on Gli1 transcription is through ERα or ERβ, experiments were conducted to determine whether 17β-estradiol (E2) works in the same manner as genistein (FIG. 7C).

Patched1 = Patched1 mRNA levels by RT-PCR; assay type: cell-based, mouse
Procedure: as §1
(§2) Approximate IC50 values for pathway repression were determined as 30 μM for genistein, 20 μM for EGCG, and 5 μM for resveratrol. These concentrations may be easily obtainable pharmacologically in humans. […] Thus, Genistein, EGCG, and resveratrol may regulate prostate cancer via inhibition of the Hedgehog signaling pathway.

[1] = tested on: Hedgehog signaling pathway; assay: Hedgehog pathway repression, approximate IC50 from RT-PCR; assay type: cell-based, mouse; conditions: read-out: Approximate IC50 for pathway repression
Procedure: Another experiment was carried out to determine the dosage response of these phytoestrogen on Gli1 expression in the TRAMP-C2 cell line. […] The results of this experiment verifies a correlation between phytoestrogen treatment and Hedgehog activity (FIG. 6). […] These concentrations may be easily obtainable pharmacologically in humans.

[2] = tested on: Gli1 protein in LNCaP cells; assay: Gli1 protein concentration in LNCaP cells by Western blot; assay type: cell-based, human
Procedure: as §2

TRAMP-C2 cells = assay: Growth of TRAMP-C2 cell line (total cellular protein); assay type: cell-based, mouse
Procedure: as §1

[3] = tested on: Hedgehog pathway activity in Shh Light II cells; assay: Shh Light II Gli1-responsive luciferase reporter assay; assay type: cell-based; conditions: Shh Light II cells with sonic hedgehog protein, 24 hours, FIG. 7B
Procedure: The effects of various phytoestrogens on Hedgehog signaling in a non-tumor cell line Shh Light II were also assessed (FIG. 7B). Shh Light II cells were obtained from the ATCC. These cells, containing the Gli1 responsive promoter driving a luciferase reporter, are a standard tool used to assay Hedgehog pathway activity. Meloni et al., 2006. Cells were allowed to reach confluency in 24-well plates and subsequently treated with the selected phytoestrogens at the amount indicated on the figure, along with the stimulatory sonic hedgehog protein (obtained from R&D Systems). The cells were then grown for 24 hours in phenol red-free DMEM supplemented with 0.5% charcoal stripped fetal bovine serum. Cells were then lysed, and the luciferase and renilla activities of the cell lysates were measured.

[4] = tested on: prostate tumor in ERWT/TRAMP mice; assay: Prostate tumorigenesis in ERWT/TRAMP mice fed genistein diet; assay type: in vivo, mouse
Procedure: (§3) The influence of estrogen on prostate cancer has been previously described in the Background section. In order to determine the effect of genistein on prostate tumor development in the TRAMP model, in the first experiment, groups of ˜30 male mice, either ERαKO/TRAMP, ERβKO/TRAMP or ERWT/TRAMP were fed diets containing 0 or 300 mg genistein/kg (See Table 1). Mice were fed the diets from weaning and were euthanized at 5 months of age. Prostates were dissected and prepared for histopathology. The tumor stage was assessed using ratings of normal (N), hyperplasia (HYP), prostatic intraepithelial neoplasia (PIN), well differentiated carcinoma (WDC), moderately differentiated carcinoma (MDC) or poorly differentiated carcinoma (PDC) See Wechter et al., 2000; also see http://thegreenberglab.fhcrc.org. To summarize the data, non-cancer was defined as N, HYP or PIN and cancer was defined as WDC, MDC or PDC (Table 1) The prostate tumor incidence was compared between mice fed with genistein diet and those fed with casein.

[5] = tested on: prostate tumor in ERαKO/TRAMP mice; assay: Prostate tumorigenesis in ERαKO/TRAMP mice fed genistein diet; assay type: in vivo, mouse
Procedure: as §3

[6] = tested on: prostate tumor in ERβKO/TRAMP mice; assay: Prostate tumorigenesis in ERβKO/TRAMP mice fed genistein diet; assay type: in vivo, mouse
Procedure: as §3

[7] = tested on: poorly differentiated carcinoma in TRAMP mouse; conditions: TRAMP mouse model; cited from earlier work
[8] = tested on: estrogen receptor alpha (ERα) and beta (ERβ); conditions: cited from earlier work
xenograft tumors = conditions: mice; cited from earlier work
[9] = in vivo; cited from earlier work
[10] = ERWT/TRAMP, 300 mg genistein/kg diet, 5 months of age
[11] = ERαKO/TRAMP, 300 mg genistein/kg diet, 5 months of age
[12] = ERβKO/TRAMP, 300 mg genistein/kg diet, 5 months of age

C[C@]12CC[C@@H]3c4ccc(O)cc4CC[C@H]3[C@@H]1CC[C@@H]2O [E2, 17β-estradiol, reference compound]
inhibition of Gli1 expression (Gli1; TRAMP-C2 cells, 10 nM, 24 hours, FIG. 7C): Strong inhibition

O=C(O[C@@H]1Cc2c(O)cc(O)cc2O[C@@H]1c1cc(O)c(O)c(O)c1)c1cc(O)c(O)c(O)c1 [EGCG]
suppression of Gli1 mRNA concentration compared with cyclopamine 30 μM (Gli1): more pronounced
expression of Gli1, Gli2 and Gli3 (Gli1; TRAMP-C2 cells): down-regulate
reduction of Patched1 mRNA levels (Patched1): 70%
IC50 ([1]; RT-PCR): ~20 µM
Gli1 protein concentration [2]: significantly reduced
proliferation of TRAMP-C2 cells (TRAMP-C2 cells): inhibited

O=c1c(-c2ccc(O)cc2)coc2cc(O)cc(O)c12 [genistein]
suppression of Gli1 mRNA concentration compared with cyclopamine 30 μM (Gli1): more pronounced
expression of Gli1, Gli2 and Gli3 (Gli1; TRAMP-C2 cells): down-regulate
Gli1 expression compared to the untreated control (Gli1; TRAMP-C2 cells, RT-PCR, FIG. 5, GAPDH internal control): down-regulates
effect of addition of genistein on inhibition of Gli1 expression by E2 (Gli1; TRAMP-C2 cells, with 10 nM E2, FIG. 7C): did not enhance
reduction of Patched1 mRNA levels (Patched1): 70%
IC50 ([1]; Mus musculus): ~30 µM
Gli1 protein concentration [2]: significantly reduced
hedgehog activity (luciferase reporter activity) [3]: inhibit
proliferation of TRAMP-C2 cells (TRAMP-C2 cells): inhibited
protective effect on prostate tumor incidence versus casein diet ([4]; ERWT/TRAMP mice, 300 mg genistein/kg diet from weaning to 5 months): significant protective effect
HYP (2), incidence [4, 10]: 28%
HYP (2), number of mice [4, 10]: 15
MDC (5), incidence [4, 10]: 2%
MDC (5), number of mice [4, 10]: 1
Normal (Stage1), number of mice [4, 10]: 0
PDC (6), incidence [4, 10]: 24%
PDC (6), number of mice [4, 10]: 13
PIN (3), incidence [4, 10]: 33%
PIN (3), number of mice [4, 10]: 18
WDC (4), incidence [4, 10]: 13%
WDC (4), number of mice [4, 10]: 7
protective effect on prostate tumor incidence versus casein diet ([5]; ERαKO/TRAMP mice, 300 mg genistein/kg diet from weaning to 5 months): not
HYP (2), number of mice [5, 11]: 0
MDC (5), incidence [5, 11]: 3.8%
MDC (5), number of mice [5, 11]: 1
Normal (Stage1), incidence [5, 11]: 3.8%
Normal (Stage1), number of mice [5, 11]: 1
PDC (6), number of mice [5, 11]: 0
PIN (3), incidence [5, 11]: 3.8%
PIN (3), number of mice [5, 11]: 1
WDC (4), incidence [5, 11]: 88.6%
WDC (4), number of mice [5, 11]: 23
protective effect on prostate tumor incidence versus casein diet ([6]; ERβKO/TRAMP mice, 300 mg genistein/kg diet from weaning to 5 months): not
HYP (2), number of mice [6, 12]: 0
MDC (5), number of mice [6, 12]: 0
Normal (Stage1), number of mice [6, 12]: 0
PDC (6), incidence [6, 12]: 48%
PDC (6), number of mice [6, 12]: 10
PIN (3), incidence [6, 12]: 19%
PIN (3), number of mice [6, 12]: 4
WDC (4), incidence [6, 12]: 33%
WDC (4), number of mice [6, 12]: 7
effect on poorly differentiated carcinoma [7]: protective effect
binding to ERα and ERβ [8]: bind both receptors with a higher affinity for ERβ

COc1cc(/C=C/C(=O)CC(=O)/C=C/c2ccc(O)c(OC)c2)ccc1O [curcumin]
hedgehog activity (luciferase reporter activity) [3]: inhibit

CC1=C2C[C@H]3[C@@H](CC=C4C[C@@H](O)CC[C@@]43C)[C@@H]2CC[C@]12O[C@@H]1C[C@H](C)CN[C@H]1[C@H]2C [cyclopamine]
effect on xenograft tumors (xenograft tumors): complete regression
birth defects in the progeny [9]: cause birth defects, most notably cyclopia

Oc1ccc(C=Cc2cc(O)cc(O)c2)cc1 [resveratrol]
reduction of Gli1 mRNA (Gli1; RT-PCR): 60%
reduction of Patched1 mRNA levels (Patched1): 50%
IC50 ([1]; Mus musculus, RT-PCR): ~5 µM
Gli1 protein concentration [2]: significantly reduced
